Measured values published in patent US20150087619A1, “METHOD OF MITIGATING VIRUS ASSOCIATED END-ORGAN DAMAGE” (CHIMERIX, INC., priority 2012, published 2015).
“Also recorded” adds a separate entry of the source.

Tests used:
HSV-1 = assay: In vitro antiviral activity in cell culture; type: cell-based; settings: Human alphaherpesvirus 1; HSV-1, cell culture
EBV = assay: In vitro antiviral activity in cell culture; type: cell-based; settings: human gammaherpesvirus 4
[1] = Phase 1 comparative bioavailability (solution vs tablet) and food effect study; settings: for Plasma HDP-CDV CL/F / Plasma HDP-CDV Tmax / Plasma HDP-CDV AUC0-inf / Plasma HDP-CDV AUC0-last / Plasma HDP-CDV Cmax / Plasma HDP-CDV t1/2: single oral dose; for Plasma HDP-CDV CL/F / Plasma HDP-CDV Tmax / Plasma HDP-CDV AUC0-inf / Plasma HDP-CDV AUC0-last / Plasma HDP-CDV Cmax / Plasma HDP-CDV t1/2 / Plasma Cidofovir CL/F: healthy volunteers; for Plasma HDP-CDV CL/F / Plasma HDP-CDV AUC0-inf / Plasma HDP-CDV AUC0-last / Plasma HDP-CDV Cmax / Plasma HDP-CDV t1/2 / Plasma Cidofovir CL/F: mean; for Plasma HDP-CDV Tmax: median;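 on all read-outs here: plasma levels quantified by validated LC-MS/MS, LLOQ 0.1 ng/mL for HDP-CDV and 0.5 ng/mL for CDV, crossover design with 14-day washout between single doses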
CMV [2] = assay: In vitro antiviral activity in cell culture; type: cell-based; settings: Human betaherpesvirus 5
HSV = assay: HDP-CDV given to patients with viral infections, virology data; settings: patient 2 mo, 4.63 kg, neonatal HSV encephalitis; 4 mg/kg BIW; to below the limit of detection
CMV [3] = assay: as above; settings: patient
VZV-BAC-Luc strain = type: in vivo, mouse
JCV = assay: HDP-CDV given to patients with viral infections, virology data; settings: patient, JCV associated PML; 2 mg/kg BIW; initial 398 (CSF) and 557 (urine)
BKV [4] = assay: In vitro antiviral activity in cell culture; type: cell-based
clinical = settings: male, human, plasma, 40 mg
[5] = Safety in clinical trials; type: in vivo, human; settings: extensive clinical trials
BKV [6] = assay: HDP-CDV given to patients with viral infections, virology data; settings: patient
BKV [7] = assay: Study HDP-CDV-201: BK viruria and viremia in post-HCT subjects; type: in vivo, human
Protocol: A HDP-CDV-201, a 9-11 week randomized, placebo-controlled, double-blind, dose-escalation clinical study (40 mg weekly [QW], 100 mg QW, 200 mg QW, 200 mg twice-weekly [BIW], and 100 mg BIW) of HDP-CDV for the prevention of BKV infection post-HCT was performed. Treatment was initiated at the time of engraftment and continued until Week 13 post-HCT.
A multicenter, randomized, double-blind, placebo-controlled, dose-escalation study of safety, tolerability, and ability of HDP-CDV to prevent or control AdV, BKV, and EBV infection and associated disorders was conducted. During enrollment of patients in the study, urine samples of candidate patients were routinely screened for BKV. Plasma was collected from patients who tested positive for BKV viruria in urine, and AdV, EBV and BKV level in the plasma was evaluated.
Subjects were tabulated according to treatment group (pooled HDP-CDV versus placebo) and BKV status (viruria positive or negative any time during treatment). Pairwise comparisons were performed using a Fisher's exact test. Data were pooled for HDP-CDV versus placebo groups due to the limited sample size. […] Data from the largest study cohort (HDP-CDV 100 mg BIW) are presented separately in some of the analyses as this dose as been selected for further development of HDP-CDV in Phase 3 trials.

[8] = 40 mg tablet, fed (high fat breakfast)

Compound: CCCCCCCCCCCCCCCCOCCCOP(=O)(O)COC(CO)Cn1ccc(N)nc1=O (centres unmarked) [HDP-CDV]
- EC50 (HSV-1): 60 nM
- EC50 (EBV): 40 nM
- Plasma HDP-CDV CL/F ([1]; 40 mg solution, fasted): 77.5 L/h
- Plasma HDP-CDV Tmax ([1]; 40 mg solution, fasted): 2.00 h
- Plasma HDP-CDV AUC0-inf ([1]; 40 mg tablet, fasted): 496 ng·h/mL
- Plasma HDP-CDV AUC0-last ([1]; 40 mg tablet, fasted): 473 ng·h/mL
- Plasma HDP-CDV CL/F ([1]; 40 mg tablet, fasted): 86.1 L/h
- Plasma HDP-CDV Cmax ([1]; 40 mg tablet, fasted): 73.9 ng/mL
- Plasma HDP-CDV t1/2 ([1]; 40 mg tablet, fasted): 7.52 h
- Plasma HDP-CDV Tmax ([1]; 40 mg tablet, fasted): 3.00 h
- Plasma HDP-CDV AUC0-inf [1, 8]: 367 ng·h/mL
- Plasma HDP-CDV AUC0-last [1, 8]: 340 ng·h/mL
- Plasma HDP-CDV CL/F [1, 8]: 119 L/h
- Plasma HDP-CDV Cmax [1, 8]: 39.4 ng/mL
- Plasma HDP-CDV t1/2 [1, 8]: 6.65 h
- Plasma HDP-CDV Tmax [1, 8]: 6.00 h
- food effect on HDP-CDV absorption and bioavailability ([1]; 40 mg tablet, high fat meal vs fasted): reduced peak concentration and delayed Tmax; also recorded: significant food effect
- Plasma Cidofovir CL/F ([1]; after 40 mg HDP-CDV solution, fasted): 40.8 L/h
- Plasma Cidofovir CL/F ([1]; after 40 mg HDP-CDV tablet, fasted): 44.3 L/h
- Plasma Cidofovir CL/F ([1]; after 40 mg HDP-CDV tablet, fed): 46.9 L/h
- food effect on CDV concentrations ([1]; after 40 mg HDP-CDV tablet, high fat meal vs fasted): unaffected by the presence of food; also recorded: no food effect
- HDP-CDV Ln(AUCinf) Test Geometric LSM ([1]; fed tablet (test), TOST): 343.5310 ng·h/mL
- HDP-CDV Ln(AUClast) Test Geometric LSM ([1]; fed tablet (test), TOST): 323.8453 ng·h/mL
- HDP-CDV Ln(Cmax) Test Geometric LSM ([1]; fed tablet (test), TOST): 37.0360 ng/mL
- HDP-CDV Ln(AUCinf) Ratio [% Ref] ([1]; in vivo): 72.17 % Ref
- HDP-CDV Ln(AUClast) Ratio [% Ref] ([1]; in vivo): 70.89 % Ref
- HDP-CDV Ln(Cmax) Ratio [% Ref] ([1]; in vivo): 52.56 % Ref
- absorption following a single oral administration ([1]; solution and tablet formulation, 40 mg): readily absorbed
- EC50 (CMV [2]): 1 nM
- HSV in the CSF decrease (HSV): > 1.8 log10 copies/mL to below the limit of
- decrease in CMV viremia (CMV [3]; 61 kg, GCV res (UL97), 3 mg/kg BIW, first month of dosing): GCV res (UL97). There was a 1.9 log10
- CMV viremia 4 days after the third dose (CMV [3]; 63.3 kg, refractory CMV, UL97 and UL54 mutations, 4 mg/kg BIW, from 9200 copies/mL): first day of dosing to 1000 copies/mL 4
- CMV after dosing interruption (CMV [3]; 63.3 kg, refractory CMV, 4 mg/kg BIW): interrupted resulting in virologic rebound.
- CMV suppression during therapy (CMV [3]; 69 kg, 2 mg/kg, 1 mg/kg second dose, then 2 mg/kg BIW, after discontinuation of ganciclovir): CMV suppression continued during HDP-
- CMV viremia during therapy (CMV [3]; 72.8 kg, post lung transplant CMV, 3 mg/kg BIW): There was no change in CMV viremia
- viral load (qPCR) (VZV-BAC-Luc strain; 1.25, 2.5, and 5.0 mg/kg, 8 doses once daily): dose dependent
- efficacy in vivo (VZV-BAC-Luc strain; SCID-Hu mouse model of VZV replication): highly effective
- JCV viral load in the CSF and urine during treatment (JCV): viral load became undetectable (<300 copies/mL
- EC50 (BKV [4]): 130 nM
- AUC(0-inf) (clinical; oral): 476 ng·h/mL
- AUC(0-t) (clinical; oral): 457 ng·h/mL
- Cmax (clinical; oral): 70.5 ng/mL
- AUC(0-inf) (clinical; po): 574 ng·h/mL
- AUC(0-t) (clinical; po): 549 ng·h/mL
- Cmax (clinical; po): 77.7 ng/mL
- Vd/F (clinical; po): 831 L
- half-life (clinical; po): 8.06 h
- myelosuppression or nephrotoxicity [5]: has not been associated with either myelosuppression or nephrotoxicity
- response of BKV in urine (BKV [6]; 57.9 kg, 2 mg/kg BIW): CMV viremia but no sustained response of
- BK viruria during administration (BKV [6]; 69 kg, BKV hemorrhagic cystitis, 2 mg/kg, 1 mg/kg second dose, then 2 mg/kg BIW): ganciclovir. BK viruria decreased during
- BKV in urine (BKV [6]; 108 kg, 3 mg/kg first dose, 2 mg/kg BIW thereafter, by a similar amount (almost 2 log10)): rose
- antiviral effect (BKV [7]; 40 mg QW dose): has not been shown to have antiviral activity; also recorded: no antiviral effect
- BKV viral load and risk or incidence of end organ damage (BKV [7]; BKU+ patients, FIG. 3): effective in reducing BKV viral load and the risk or incidence of end organ damage
- >10,000 confirmed, new onset (viremia) (BKV [7]; Cohort 4A 100 mg BIW): 0
- Viruria >1.0E+10 but only at posttreatment week (BKV [7]; Cohort 4A 100 mg BIW (1/22)): (4.5%)
- Viremia sustained, but no viremia at baseline (BKV [7]; Cohort 4A 100 mg BIW (3/22)): (13.6%)
- Viremia >1000 copies/mL confirmed (BKV [7]; Cohort 4A 100 mg BIW (4/22)): (18.2%)
- Viremia sustained (at least 2 consecutive values positive) (BKV [7]; Cohort 4A 100 mg BIW (5/22)): (22.7%)
- Viremia at any time during treatment (BKV [7]; Cohort 4A 100 mg BIW (6/22)): (27.3%)
- Viruria >1.0E+10 at any time during treatment (BKV [7]; Cohort 4A 100 mg BIW, BKV positive urine at baseline (4/22)): (18.2%)
- BK viremia (BKV [7]; Cohort 4a (100 mg BIW), 5/22): 23%
- Viruria >1.0E+10 but only at posttreatment week (BKV [7]; Pooled HDP-CDV cohorts (4/77)): (5.2%)
- >10,000 confirmed, new onset (viremia) (BKV [7]; Pooled HDP-CDV cohorts (5/77)): (6.5%)
- Viremia sustained, but no viremia at baseline (BKV [7]; Pooled HDP-CDV cohorts (23/77)): (29.9%)
- Viremia >1000 copies/mL confirmed (BKV [7]; Pooled HDP-CDV cohorts (31/77)): (26%)
- Viremia sustained (at least 2 consecutive values positive) (BKV [7]; Pooled HDP-CDV cohorts (32/77)): (41.6%)
- Viremia at any time during treatment (BKV [7]; Pooled HDP-CDV cohorts (40/77)): (47%)
- Viruria >1.0E+10 at any time during treatment (BKV [7]; Pooled HDP-CDV cohorts, BKV positive urine at baseline (26/77)): (33.8%)
- subjects who developed viremia >10,000 copies/mL (BKV [7]; cohort 1 (40 mg QW)): 1
- BK viremia (BKV [7]; cohort 1 (40 mg QW), 5/8): 62%
- subjects who developed viremia >10,000 copies/mL (BKV [7]; cohort 2 (100 mg QW)): 1
- subjects who developed viremia >10,000 copies/mL (BKV [7]; cohort 3 (200 mg QW)): 3
- subjects who developed viremia >10,000 copies/mL (BKV [7]; cohort 4 (200 mg BIW)): 3
- subjects who developed viremia >10,000 copies/mL (BKV [7]; cohort 4a (100 mg BIW)): 0
- subjects with high levels of BK viruria (BKV [7]; negative for BK viruria at baseline, Cohort 1 (40 mg QW)): 0 subject
- subjects with high levels of BK viruria (BKV [7]; negative for BK viruria at baseline, Cohort 2 (100 mg QW)): 1 subject
- subjects with high levels of BK viruria (BKV [7]; negative for BK viruria at baseline, Cohort 3 (200 mg QW)): 2 subject
- subjects with high levels of BK viruria (BKV [7]; negative for BK viruria at baseline, Cohort 4 (200 mg BIW)): 0 subject
- subjects with high levels of BK viruria (BKV [7]; negative for BK viruria at baseline, Cohort 4a (100 mg BIW)): 0 subject
- subjects with viremia (BKV [7]; negative for BK viruria at baseline, pooled HDP-CDV): one
- viral load (maximum BKV viruria) (BKV [7]; patients (67%) who did not develop end organ disease, FIG. 3): 2.0×10^8
- viral load (maximum BKV viruria) (BKV [7]; patients who developed end organ disease after treatment (33%), FIG. 3): 3.2×10^8
- viral load compared to patients who received placebo (BKV [7]; patients who developed end organ disease after treatment, FIG. 3): significantly lower viral load
- sustained BK viruria (at least 4 weeks with BK positive urine measurements) (BKV [7]; subjects negative for BK viruria at baseline (9/73), placebo 21%): 12%
- confirmed new onset BK viruria during treatment (BKV [7]; subjects negative for BK viruria at baseline (10/73), placebo 25%): 14%
- measurable BK viruria on at least one occasion (BKV [7]; subjects negative for BK viruria at baseline (16/73), placebo 29%): 22%
